Experimental data taken from publication doi:10.1101/2025.09.18.676322v1 (bioRxiv, 2025).
Residues, ends and D or L forms follow the SMILES beside them.

How the values were obtained:
[1] = target: T1, TREM2 (Homo sapiens, UniProt Q9NZC2); assay: Spectral shift assay of TREM2 binding; details: for TREM2 binding in spectral shift analysis (in words): labeled TREM2 10 nM, PBST pH 7.4, 10 min at room temperature
T1 sequence (Q9NZC2 19-174 limits assumed): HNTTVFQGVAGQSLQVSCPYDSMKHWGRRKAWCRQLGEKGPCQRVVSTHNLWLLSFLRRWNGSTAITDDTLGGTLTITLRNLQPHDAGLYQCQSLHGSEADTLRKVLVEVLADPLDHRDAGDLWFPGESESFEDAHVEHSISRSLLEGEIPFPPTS

[2] = reference compound of the assay; cited from earlier work
[3] = Stability in simulated gastric fluid; assay type: in vitro ADME; details: pH 1.6
[4] = Stability in simulated intestinal fluid; assay type: in vitro ADME; details: pH 6.5
[5] = Stability in human plasma; assay type: in vitro ADME
[6] = LogD7.4 by miniaturized shake-flask procedure; assay type: physicochemical; details: miniaturized shake-flask procedure at pH 7.4
[7] = Caco-2 cell permeability; assay type: in vitro ADME
[8] = Stability in rat liver microsomes; assay type: in vitro ADME
[9] = reference compound of the assay; cited from earlier work; remark: listed apart in the source

In the case of cyclo(GSSVNVQTGEVL) [TP2], the “TREM2 binding in spectral shift analysis (in words)” value [1] is reported as “measurable responses”.

For cyclo(LPGRLVSLPDGRHLC) [TP3], the “TREM2 binding in spectral shift analysis (in words)” value [1] was “did not exhibit detectable binding”.

For `CC[C@H]1OC(=O)[C@H](C)[C@@H](O[C@H]2C[C@@](C)(OC)[C@@H](O)[C@H](C)O2)[C@H](C)[C@@H](O[C@@H]2O[C@H](C)C[C@H](N(C)C)[C@H]2O)[C@](C)(O)C[C@@H](C)C(=O)[C@H](C)[C@@H](O)[C@]1(C)O` [erythromycin], the “Stability in intestinal simulated fluids, t1/2” value [2] is given as 453 min.

In the case of `CC(C)[C@@H]1NC(=O)CNC(=O)[C@H](C)NC(=O)[C@H](CO)NC(=O)[C@H](C(C)C)NC(=O)[C@H](CO)NC(=O)[C@H](C(C)C)NC(=O)[C@H](C)NC(=O)CNC(=O)[C@H](CC(=O)O)NC(=O)[C@H](CCCCN)NC(=O)[C@H](CCC(=O)O)NC(=O)[C@H]([C@@H](C)O)NC(=O)[C@H]([C@@H](C)O)NC1=O` [TP4] (cyclo(AGVTTEKDGAVSVS); ring closure inferred), the “TREM2 binding in spectral shift analysis (in words)” value [1] is reported as “measurable responses”, the “equilibrium dissociation constant (Kd), in words” value ([1]; summary statement in the introduction, assay not named) is reported as “sub-millimolar range” and the half-life [3] is reported as 55.8 min. It also gave a half-life [4] of 349 min, a remaining at 1 h [5] of 83.1% and a LogD7.4 [6] of 1.03. It also gave a Papp A→B [7] of 1.32 ×10⁻⁶ cm/s, a Papp B→A [7] of 2.47 ×10⁻⁶ cm/s and a half-life [8] of 236 min.

For `CC(C)[N+](C)(CCOC(=O)C1c2ccccc2Oc2ccccc21)C(C)C` [propantheline], the “Human plasma stability, t1/2” value [9] is given as 2.6 min.

With cyclo(GNSVNVETGARL) [TP1] the “TREM2 binding in spectral shift analysis (in words)” value [1] was “measurable responses”.
